Test results: EP1174152B1, “Inclusion complex of an opioid peptide with cyclodextrin” (COUNCIL OF SCIENTIFIC AND INDUSTRIAL RESEARCH, priority 2000, dated 2002)

Legend:
rats = experiment: 30 days toxicity study by subcutaneous route in rat; format: in vivo; conditions: once daily for 30 consecutive days, 7.5, 15.0 and 30.0 mg/kg
Experimental: (§1) 30 days toxicity study of L-Tyrosyl-D-alanyl-glycyl-N-methylphenylanyl-glycyl-isopropylamide in rat and rhesus monkey by subcutaneous route.
(§2) Compound L-Tyrosyl-D-alanyl-glycyl-N-methylphenylalanyl-glycyl-isopropylamide dissolved in saline was given daily by subcutaneous route to groups of rats (n=10 males and 10 females in each group) and rhesus monkeys (n=2 males and 2 females in each group) once daily for 30 consecutive days. The dose levels used in rats were 0 0, 7.5, 15.0 and 30.0 mg/kg and in monkeys 0.0, 3.75, 7.5 and 15 mg/kg. Dose levels were selected on the basis of rat ED of 3.0 mg/kg and extrapolation thereof in the monkey. […]
(§3) Body weights (weekly in rats, initial and day 30 in monkeys), daily food (rat and monkeys) and water (rat only) consumption and parameters of hematology, urinalysis and blood biochemistry of the animals was recorded All the animals were sacrificed at the end of 30 days Necropsy was performed and histophathological examination of all the important organs and tissues were done. […]
(§4) During necropsy examination of the external surface of the body, all orifices, and the cranial thoracic and abdominal cavities and their contents was performed. […] Liver, kidneys, adrenals, brain heart lungs, spleen and gonads were weighed, and their rdative weights were also calculated. […]

rhesus monkeys = experiment: 30 days toxicity study by subcutaneous route in rhesus monkey; format: in vivo; conditions: once daily for 30 consecutive days, 3.75, 7.5 and 15 mg/kg
Experimental: as §1, §2, §3, §4

leucine amino peptidase = conditions: enzyme hydrolysis with leucine amino peptidase; cited from earlier work

Compound	30-day toxicity study outcome (rats)	30-day toxicity study outcome (rhesus monkeys)	half life (leucine amino peptidase) [min]
CC(C)NC(=O)CNC(=O)[C@H](Cc1ccccc1)N(C)C(=O)CNC(=O)[C@@H](C)NC(=O)[C@@H](N)Cc1ccc(O)cc1 [L-Tyrosyl-D-alanyl-glycyl-N-methylphenylalanyl-glycyl-isopropylamide]	found safe	found safe	
Leu-enkephalin			45
